#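 Cells were grown in 96-well plates and exposed to each compound for 48 hours at five concentrations; endpoints were interpolated linearly between bracketing concentrations, or set to the highest concentration if not reached. TGI denotes the concentration required for complete inhibition of growth.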
# How the values were obtained:
# Test in all cases: NCI tumour cell line growth inhibition, 48 h
# HOP-92 NSCLC = test system: HOP-92 NSCLC
# HOP-62 NSCLC = test system: HOP-62 NSCLC
# OVCAR-8 ovarian = test system: OVCAR-8 ovarian
# NCI/ADR-RES ovarian = test system: NCI/ADR-RES ovarian
# SN12K1 renal = test system: SN12K1 renal
# OVCAR-3 ovarian = test system: OVCAR-3 ovarian
# RXF 393 renal = test system: RXF 393 renal
# DMS 273 small cell lung = test system: DMS 273 small cell lung
# A498 renal = test system: A498 renal
# SF-539 CNS = test system: SF-539 CNS
# NCI-H226 lung = test system: NCI-H226 lung
# RPMI-8226 leukemia = test system: RPMI-8226 leukemia
# UACC-62 melanoma = test system: UACC-62 melanoma
# NCI-H23 lung = test system: NCI-H23 lung
# HL-60(TB) leukemia = test system: HL-60(TB) leukemia
# A549 NSCLC = test system: A549 NSCLC
# SF-268 CNS = test system: SF-268 CNS
# SK-MEL-2 melanoma = test system: SK-MEL-2 melanoma
# KM12 colon = test system: KM12 colon
# U251 CNS = test system: U251 CNS
# SK-MEL-28 melanoma = test system: SK-MEL-28 melanoma
# UACC-257 melanoma = test system: UACC-257 melanoma
# HCC-2998 colon = test system: HCC-2998 colon
# HT29 colon = test system: HT29 colon
# SK-MEL-5 melanoma = test system: SK-MEL-5 melanoma
# OVCAR-5 ovarian = test system: OVCAR-5 ovarian
# UO-31 renal = test system: UO-31 renal
# XF 498 CNS = test system: XF 498 CNS
# COLO 205 colon = test system: COLO 205 colon
# SN12C renal = test system: SN12C renal
# SNB-75 CNS = test system: SNB-75 CNS
# SW-620 colon = test system: SW-620 colon
# SNB-19 CNS = test system: SNB-19 CNS
# SNB-78 CNS = test system: SNB-78 CNS
# NCI-H522 lung = test system: NCI-H522 lung
# HOP-18 NSCLC = test system: HOP-18 NSCLC
# LOX IMVI melanoma = test system: LOX IMVI melanoma
# EKVX NSCLC = test system: EKVX NSCLC
# M19-MEL melanoma = test system: M19-MEL melanoma
# HCT-15 colon = test system: HCT-15 colon
# OVCAR-4 ovarian = test system: OVCAR-4 ovarian
# P388/ADR leukemia = test system: P388/ADR leukemia
# MOLT-4 leukemia = test system: MOLT-4 leukemia
# KM20L2 colon = test system: KM20L2 colon
# K-562 leukemia = test system: K-562 leukemia
# SK-OV-3 ovarian = test system: SK-OV-3 ovarian
# CAKI-1 renal = test system: CAKI-1 renal
# SF-295 CNS = test system: SF-295 CNS
# IGROV1 ovarian = test system: IGROV1 ovarian
# DLD-1 colon = test system: DLD-1 colon
# NCI-H460 lung = test system: NCI-H460 lung
# P388 leukemia = test system: P388 leukemia
# DMS 114 small cell lung = test system: DMS 114 small cell lung
# MCF7 breast = test system: MCF7 breast
# HCT-116 colon = test system: HCT-116 colon
# MALME-3M melanoma = test system: MALME-3M melanoma
# CCRF-CEM leukemia = test system: CCRF-CEM leukemia
smiles,measurement,setting,value
Nc1ncnc2c1ncn2C1OC(COP(=O)(O)O)C(O)C1O (configuration not stated),TGI,HOP-92 NSCLC,> 46.6 µM
same,TGI,HOP-62 NSCLC,> 50 µM
same,TGI,OVCAR-8 ovarian,15.2 µM
same,TGI,NCI/ADR-RES ovarian,> 32.2 µM
same,TGI,SN12K1 renal,> 50 µM
same,TGI,OVCAR-3 ovarian,> 50 µM
same,TGI,RXF 393 renal,> 50 µM
same,TGI,DMS 273 small cell lung,> 50 µM
same,TGI,A498 renal,> 50 µM
same,TGI,SF-539 CNS,> 50 µM
same,TGI,NCI-H226 lung,> 50 µM
same,TGI,RPMI-8226 leukemia,> 50 µM
same,TGI,UACC-62 melanoma,> 50 µM
same,TGI,NCI-H23 lung,> 50 µM
same,TGI,HL-60(TB) leukemia,> 50 µM
same,TGI,A549 NSCLC,> 50 µM
same,TGI,SF-268 CNS,> 50 µM
same,TGI,SK-MEL-2 melanoma,> 50 µM
same,TGI,KM12 colon,> 50 µM
same,TGI,U251 CNS,> 50 µM
same,TGI,SK-MEL-28 melanoma,> 50 µM
same,TGI,UACC-257 melanoma,> 50 µM
same,TGI,HCC-2998 colon,> 50 µM
same,TGI,HT29 colon,> 50 µM
same,TGI,SK-MEL-5 melanoma,> 50 µM
same,TGI,OVCAR-5 ovarian,> 50 µM
same,TGI,UO-31 renal,> 50 µM
same,TGI,XF 498 CNS,> 44.7 µM
same,TGI,COLO 205 colon,> 50 µM
same,TGI,SN12C renal,> 50 µM
same,TGI,SNB-75 CNS,> 50 µM
same,TGI,SW-620 colon,> 50 µM
same,TGI,SNB-19 CNS,> 50 µM
same,TGI,SNB-78 CNS,> 50 µM
same,TGI,NCI-H522 lung,> 50 µM
same,TGI,HOP-18 NSCLC,> 50 µM
same,TGI,LOX IMVI melanoma,> 50 µM
same,TGI,EKVX NSCLC,> 50 µM
same,TGI,M19-MEL melanoma,> 50 µM
same,TGI,HCT-15 colon,> 50 µM
same,TGI,OVCAR-4 ovarian,> 50 µM
same,TGI,P388/ADR leukemia,> 50 µM
same,TGI,MOLT-4 leukemia,> 50 µM
same,TGI,KM20L2 colon,> 50 µM
same,TGI,K-562 leukemia,> 50 µM
same,TGI,SK-OV-3 ovarian,> 50 µM
same,TGI,CAKI-1 renal,> 50 µM
same,TGI,SF-295 CNS,> 50 µM
same,TGI,IGROV1 ovarian,> 50 µM
same,TGI,DLD-1 colon,> 31.6 µM
same,TGI,NCI-H460 lung,> 50 µM
same,TGI,P388 leukemia,> 37.3 µM
same,TGI,DMS 114 small cell lung,> 50 µM
same,TGI,MCF7 breast,> 50 µM
same,TGI,HCT-116 colon,> 50 µM
same,TGI,MALME-3M melanoma,> 50 µM
same,TGI,CCRF-CEM leukemia,> 50 µM

# From PubChem BioAssay (NCI)
